According to US20120070392A1, “COMPOSITION FOR INHIBITING ERYTHEMA CAUSED BY ULTRAVIOLET RADIATION CONTAINING A DIPEPTIDE AS ACTIVE INGREDIENT” (priority 2009, published 2012):

tested on: PGE2 production; assay: Inhibition of UVB-induced PGE2 production in cultured human keratinocytes (PGE2 assay kit, calibrated with MTT absorbance); assay type: cell-based; settings: not given
Protocol: Human keratinocytes were seeded at a density of 1×10^5 cells/well to 6-well plates containing 2 mL of KGM(keratinocyte growth medium, Clonetics, San Diego, Calif., USA) per well and cultured overnight. Then, the medium was replaced with KBM(keratinocyte basal medium) supplemented with 0.1% BSA(bovine serum albumin) and the cells were cultured for an additional 24 hours. Subsequently, the cells were pre-treated for an additional 24 hours with 2 mL of the same medium containing 10 μg/ml of each of the dipeptides listed in Table 1. […] The pre-treated medium was transferred to new 24 well plates and 1 mL of DPBS(Dulbecco's phosphate buffered saline) was added to the cells in each well. During UV irradiation, the transferred medium was stored in a cell incubator. […] At this time, the control was covered with aluminum foil. After the removal of DPBS, the transferred medium was returned to each well. The cells were further cultured for 24 hours, after which 1 mL of the medium was transferred to microcentrifuge tubes. […] The supernatants were then removed and the formazan crystals were solubilized in 1 ml of DMSO(dimethylsulfoxide). One hundred μL of the solution was transferred to each well of 96-well plates and an optical density was determined at 540 nm using an ELISA(enzyme-linked immunosorbent assay) reader. […] The concentration of PGE2 was determined using a PGE2 Assay Kit(KGE004, R&D Systems, Inc., Minneapolis, Minn., USA) according to the manufacturer's instruction. […] After removal of the reaction, the wells were washed five times with 400 μL of wash buffer. To each well was added 200 μL of a substrate solution, followed by incubation for 20 30 min. The reaction was terminated with 50 μL of a stop solution per well before determining absorbance at 450 nm on an ELISA reader. The PGE2 concentration of each sample was calculated from the standard graph and calibrated with the absorbance obtained in the MTT assay to determine their inhibitory activity against PGE2 production.

Compound | % Inhibition against PGE2 Production
NCC(=O)O.N[C@@H](CC(=O)O)C(=O)O [DG, aspartic acid-glycine] | 79.7%
NCC(=O)O.N[C@@H](CCC(=O)O)C(=O)O [EG, glutamic acid-glycine] | 90.9%
NCC(=O)O.N[C@@H](CC(=O)O)C(=O)O [GD, glycine-aspartic acid] | 23.8%
NCC(=O)O.NCCCC[C@H](N)C(=O)O [GK, glycine-lysine] | 87.0%
NCC(=O)O.O=C(O)[C@@H]1CCCN1 [PG, proline-glycine] | 80.7%
N=C(N)NCCC[C@H](N)C(=O)O.NCC(=O)O [RG, arginine-glycine] | 82.8%
alanine-asparagine | 58.8%
alanine-histidine [AH] | 64.7%
alanine-proline [AP] | 26.3%
alanine-tyrosine [AY] | 31.8%
alanine-valine [AV] | 44.8%
arginine-methionine [RM] | 84.7%
arginine-proline [RP] | 88.7%
arginine-tyrosine [RY] | 67.3%
asparagine-cysteine [NC] | 83.1%
asparagine-histidine [NH] | 65.8%

Compound | % Inhibition against PGE2 Production
asparagine-methionine [NM] | 89.5%
asparagine-proline [NP] | 70.6%
asparagine-serine [NS] | 31.9%
asparagine-threonine [NT] | 57.2%
asparagine-tyrosine [NY] | 58.1%
asparagine-valine [NV] | 80.4%
aspartic acid-asparagine [DN] | 85.6%
aspartic acid-histidine [DH] | 59.2%
aspartic acid-methionine [DM] | 63.1%
aspartic acid-proline [DP] | 89.3%
cysteine-asparagine [CN] | 92.0%
cysteine-methionine [CM] | 69.7%
glutamic acid-histidine [EH] | 75.4%
glutamic acid-methionine [EM] | 58.4%
glutamic acid-proline [EP] | 80.8%
glutamic acid-tyrosine [EY] | 75.9%

same assay, conditions: 10 μg/ml dipeptide, 24 h pre-treatment, human keratinocytes, UVB 100 mJ/cm^2, medium assayed 24 h after irradiation; 0% or lower expressed as zero; 10% or more regarded as effective

Compound | % Inhibition against PGE2 Production
NCC(=O)O.N[C@@H](Cc1c[nH]c2ccccc12)C(=O)O [WG, tryptophan-glycine] | 91.3%
alanine-alanine [AA] | 78.4%
asparagine-alanine [NA] | 42.0%

same assay, conditions: 10 μg/ml dipeptide, 24 h pre-treatment, human keratinocytes, UVB 100 mJ/cm^2, medium assayed 24 h after irradiation; […]; 10% or more regarded as effective

Compound | % Inhibition against PGE2 Production
NC(=O)CC(N)C(=O)O (stereo not shown) [NN, asparagine-asparagine] | 48.3%
alanine-arginine | 95.7%
alanine-aspartic acid [AD] | 58.3%
alanine-cysteine [AC] | 70.8%
alanine-glutamic acid [AE] | 74.6%
alanine-glutamine [AQ] | 69.0%
alanine-isoleucine [AI] | 60.1%
alanine-leucine | 48.9%
alanine-lysine [AK] | 90.3%
alanine-phenylalanine [AF] | 84.2%
alanine-serine [AS] | 72.5%
arginine-arginine [RR] | 90.5%
arginine-asparagine [RN] | 10.7%
arginine-aspartic acid [RD] | 24.1%
arginine-cysteine [RC] | 95.1%
arginine-glutamic acid [RE] | 58.8%
arginine-leucine [RL] | 30.4%
arginine-lysine [RK] | 88.2%
arginine-serine [RS] | 50.3%

Compound | % Inhibition against PGE2 Production
arginine-threonine [RT] | 27.5%
arginine-tryptophan [RW] | 34.9%
asparagine-arginine [NR] | 72.8%
asparagine-glutamic acid | 14.5%
asparagine-glutamine [NQ] | 70.1%
asparagine-leucine [NL] | 72.6%
asparagine-phenylalanine [NF] | 88.2%
aspartic acid-alanine [DA] | 94.1%
aspartic acid-aspartic acid [DD] | 64.2%
aspartic acid-cysteine [DC] | 77.6%
aspartic acid-glutamic acid [DE] | 58.5%
aspartic acid-glutamine [DQ] | 52.4%
aspartic acid-isoleucine [DI] | 25.9%
aspartic acid-leucine [DL] | 75.8%
aspartic acid-lysine [DK] | 76.6%
aspartic acid-phenylalanine [DF] | 83.4%
aspartic acid-serine [DS] | 84.0%
aspartic acid-threonine [DT] | 95.8%
aspartic acid-tryptophan [DW] | 67.3%

Compound | % Inhibition against PGE2 Production
aspartic acid-valine [DV] | 30.7%
cysteine-glutamic acid [CE] | 54.4%
cysteine-glutamine [CQ] | 93.9%
cysteine-serine [CS] | 53.1%
cysteine-tryptophan [CW] | 71.0%
glutamic acid-alanine [EA] | 55.3%
glutamic acid-arginine [ER] | 72.8%
glutamic acid-aspartic acid [ED] | 85.1%
glutamic acid-glutamic acid [EE] | 86.5%
glutamic acid-glutamine [EQ] | 79.6%
glutamic acid-isoleucine [EI] | 74.0%
glutamic acid-leucine [EL] | 56.2%
glutamic acid-lysine [EK] | 76.5%
glutamic acid-phenylalanine [EF] | 13.3%
glutamic acid-serine [ES] | 48.8%
glutamic acid-threonine [ET] | 67.9%
glutamic acid-valine [EV] | 86.4%
glutamine-arginine [QR] | 33.6%
